Results as given in patent US20040072206A1, “Method for identifying modulators of transcription” (priority 2000, published 2004).
Positions of bridges follow the written chain, without caps; N, C: chain ends. Non-standard residues stand in square brackets, D forms with d. Residues, ends and D or L forms follow the SMILES beside them. *: point of attachment. Ileψ(thiazoline)Cys = CC[C@H](C)[C@H](N)C1=N[C@H](C(=O)*)CS1; dOrn = NCCC[C@@H](N)C(=O)O

Target: T1, B. subtilis RNAP (Bacillus subtilis, UniProt P37870+P37871)
T1 construct: endogenous in cells; host or cells: Bacillus subtilis strain PL37 (built from strain 168)
T1 sequence (P37871 whole entry): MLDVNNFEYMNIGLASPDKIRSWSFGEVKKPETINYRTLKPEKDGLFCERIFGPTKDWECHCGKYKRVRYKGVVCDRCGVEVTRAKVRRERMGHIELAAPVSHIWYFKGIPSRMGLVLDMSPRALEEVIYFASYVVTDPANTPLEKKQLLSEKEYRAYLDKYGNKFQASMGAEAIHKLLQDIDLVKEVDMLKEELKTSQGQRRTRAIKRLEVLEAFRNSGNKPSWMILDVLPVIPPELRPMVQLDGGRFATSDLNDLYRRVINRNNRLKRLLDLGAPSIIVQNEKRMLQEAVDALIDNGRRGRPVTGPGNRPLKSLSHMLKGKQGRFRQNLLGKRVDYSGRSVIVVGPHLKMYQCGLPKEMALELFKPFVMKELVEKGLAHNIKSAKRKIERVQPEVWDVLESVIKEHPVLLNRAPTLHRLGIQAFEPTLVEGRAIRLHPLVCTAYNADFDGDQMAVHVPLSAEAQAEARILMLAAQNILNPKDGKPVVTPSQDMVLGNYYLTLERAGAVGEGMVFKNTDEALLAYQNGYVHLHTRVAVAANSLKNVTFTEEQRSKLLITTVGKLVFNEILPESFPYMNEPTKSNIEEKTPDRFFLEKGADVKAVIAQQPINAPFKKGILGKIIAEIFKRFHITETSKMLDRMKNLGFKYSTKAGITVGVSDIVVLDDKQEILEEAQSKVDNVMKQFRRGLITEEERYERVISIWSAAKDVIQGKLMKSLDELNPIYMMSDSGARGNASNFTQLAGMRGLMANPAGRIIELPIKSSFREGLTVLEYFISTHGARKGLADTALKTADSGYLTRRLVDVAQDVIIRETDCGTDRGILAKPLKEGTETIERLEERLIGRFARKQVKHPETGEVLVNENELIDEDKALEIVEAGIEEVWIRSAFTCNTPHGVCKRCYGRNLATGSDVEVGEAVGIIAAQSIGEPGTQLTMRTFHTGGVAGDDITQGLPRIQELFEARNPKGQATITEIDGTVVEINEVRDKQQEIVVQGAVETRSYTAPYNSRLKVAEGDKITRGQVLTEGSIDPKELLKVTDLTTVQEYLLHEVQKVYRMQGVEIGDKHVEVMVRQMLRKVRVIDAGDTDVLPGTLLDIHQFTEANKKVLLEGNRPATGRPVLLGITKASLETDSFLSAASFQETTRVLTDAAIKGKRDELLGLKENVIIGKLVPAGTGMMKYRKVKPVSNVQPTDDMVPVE
T1 sequence (P20429 whole entry, further chain): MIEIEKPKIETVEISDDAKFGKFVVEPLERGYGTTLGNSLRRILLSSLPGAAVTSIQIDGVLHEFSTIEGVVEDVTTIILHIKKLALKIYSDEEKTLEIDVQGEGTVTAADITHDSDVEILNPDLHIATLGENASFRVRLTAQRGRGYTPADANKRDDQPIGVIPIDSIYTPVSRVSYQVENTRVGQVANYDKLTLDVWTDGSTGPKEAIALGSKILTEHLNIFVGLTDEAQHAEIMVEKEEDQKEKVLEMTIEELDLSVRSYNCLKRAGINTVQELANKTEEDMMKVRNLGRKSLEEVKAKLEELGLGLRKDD
T1 sequence (O35011 whole entry, further chain): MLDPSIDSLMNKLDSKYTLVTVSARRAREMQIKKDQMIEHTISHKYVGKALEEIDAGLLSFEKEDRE
T1 sequence (P37870 whole entry): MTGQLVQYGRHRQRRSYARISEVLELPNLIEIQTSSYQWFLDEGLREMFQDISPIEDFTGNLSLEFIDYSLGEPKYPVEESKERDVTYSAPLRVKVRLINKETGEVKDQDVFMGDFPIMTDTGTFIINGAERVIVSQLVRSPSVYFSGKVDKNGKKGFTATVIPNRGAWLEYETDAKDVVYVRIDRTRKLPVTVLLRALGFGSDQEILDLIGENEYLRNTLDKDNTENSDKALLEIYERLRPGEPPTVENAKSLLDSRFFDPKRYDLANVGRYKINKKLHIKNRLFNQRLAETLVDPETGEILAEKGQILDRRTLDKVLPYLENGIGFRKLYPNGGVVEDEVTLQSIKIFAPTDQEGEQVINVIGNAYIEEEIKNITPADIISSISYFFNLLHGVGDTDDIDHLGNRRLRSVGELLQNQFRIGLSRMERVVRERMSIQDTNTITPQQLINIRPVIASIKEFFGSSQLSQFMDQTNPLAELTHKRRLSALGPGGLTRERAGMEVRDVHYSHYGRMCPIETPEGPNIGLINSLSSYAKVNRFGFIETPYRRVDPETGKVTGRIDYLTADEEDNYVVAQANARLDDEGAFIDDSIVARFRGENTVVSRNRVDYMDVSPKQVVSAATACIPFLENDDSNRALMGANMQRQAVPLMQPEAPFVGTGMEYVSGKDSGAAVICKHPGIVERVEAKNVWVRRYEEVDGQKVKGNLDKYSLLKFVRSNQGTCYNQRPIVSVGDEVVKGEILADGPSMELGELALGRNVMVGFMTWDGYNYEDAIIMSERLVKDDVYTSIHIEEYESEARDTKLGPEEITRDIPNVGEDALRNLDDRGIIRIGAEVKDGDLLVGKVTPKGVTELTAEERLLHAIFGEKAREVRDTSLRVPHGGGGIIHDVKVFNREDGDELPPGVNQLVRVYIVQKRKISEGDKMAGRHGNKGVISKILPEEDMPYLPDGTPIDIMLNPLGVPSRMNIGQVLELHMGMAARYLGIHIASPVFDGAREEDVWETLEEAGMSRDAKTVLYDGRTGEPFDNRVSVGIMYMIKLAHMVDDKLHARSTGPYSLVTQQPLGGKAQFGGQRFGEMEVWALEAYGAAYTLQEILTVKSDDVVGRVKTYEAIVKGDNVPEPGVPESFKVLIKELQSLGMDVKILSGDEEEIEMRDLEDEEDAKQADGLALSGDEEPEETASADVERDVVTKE
Experiment: Dual reporter assay in strain PL37: test reporter Pxyl-lacZ and ratio of control to test reporter (RES:MUG)
Assay type: cell-based
Settings: for Ratio of the control reporter (RES): test reporter (MUG): strain PL37, DMSO control […]
Procedure: 20 known antibiotics were tested at a range of concentrations to determine their effect on test and control reporters within the assay. […] Cultures of PL37 grown in PAB, were diluted to 0.05 A600 and then grown for 2 hours at 37° C. in PAB supplemented with 0.02 mM IPTG. Cells were pelleted and frozen. They were later resuspended and diluted in PAB supplemented with 0.02 mM IPTG and grown at 37° C. to early exponential phase. Cultures were then diluted to 0.05 A600 in PAB and added in 20 μl volumes to wells of microtitre plates containing 20 μl volumes of the antibiotics. Plates were incubated at 37° C. for two hours, and assay mix was added to detect reporter enzyme activity (see below).
Following the addition of 160 μl of assay mix (1.3×Z buffer containing 94 μg/ml lysozyme, 8.4 μg/ml 4-methylumbelliferyl-β-D-galactoside, 0.53 μg/ml resorufin-β-D-glucuronide and 0.05% Triton) to each well, the microtitre plate was incubated in the dark for 30 mini or 1 hour at room temperature. Fluorescence was read on a BMG FLUOstar Galaxy at excitation/emission 355/460 nm and 544/590 nm, respectively, with gains set at 5 and 25, respectively.

[1] = Dilution Number 1 (highest concentration tested: 128, 16 or 0.5 μg/ml depending on antibiotic)
[2] = Dilution Number 11 (lowest concentration tested: 0.125, 0.016 or 0.0005 μg/ml depending on antibiotic)

Row | Molecule | Ratio of the control reporter (RES): test reporter (MUG) [1] | Ratio of the control reporter (RES): test reporter (MUG) (Dilution Number 2) | Ratio of the control reporter (RES): test reporter (MUG) (Dilution Number 3) | Ratio of the control reporter (RES): test reporter (MUG) (Dilution Number 4) | Ratio of the control reporter (RES): test reporter (MUG) (Dilution Number 5) | Ratio of the control reporter (RES): test reporter (MUG) (Dilution Number 6) | Ratio of the control reporter (RES): test reporter (MUG) (Dilution Number 7) | Ratio of the control reporter (RES): test reporter (MUG) (Dilution Number 8) | Ratio of the control reporter (RES): test reporter (MUG) (Dilution Number 9) | Ratio of the control reporter (RES): test reporter (MUG) (Dilution Number 10) | Ratio of the control reporter (RES): test reporter (MUG) [2] | Reporter expression (both reporter activities) (strain PL37, FIG. 5 and FIG. 6)
1 | Polymyxin | 1.19 | 1.22 | 1.21 | 1.23 | 1.44 | 1.24 | 1.20 | 1.15 | 1.16 | 1.16 | 1.17 | 
2 | CN[C@@H]1[C@H](O)[C@H](NC)[C@H]2O[C@@]3(O)C(=O)C[C@@H](C)O[C@H]3O[C@@H]2[C@H]1O [Spectinomycin] | 1.30 | 1.23 | 1.21 | 1.14 | 1.16 | 1.14 | 1.08 | 1.10 | 1.10 | 1.10 | 1.13 | remained unchanged
3 | CO[C@@H]1[C@@H](OC(N)=O)[C@@H](O)[C@H](Oc2ccc3c(O)c(NC(=O)c4ccc(O)c(CC=C(C)C)c4)c(=O)oc3c2C)OC1(C)C [Novobiocin] | 1.33 | 1.70 | 1.66 | 1.49 | 1.24 | 0.81 | 0.85 | 1.05 | 1.14 | 1.18 | 1.19 | 
4 | CC1(C)S[C@@H]2[C@H](NC(=O)Cc3ccccc3)C(=O)N2[C@H]1C(=O)O [Penicillin G] | 1.77 | 1.72 | 1.70 | 1.76 | 1.81 | 1.80 | 1.84 | 1.64 | 1.01 | 1.01 | 1.07 | 
5 | CN[C@H](CC(C)C)C(=O)N[C@H]1C(=O)N[C@@H](CC(N)=O)C(=O)N[C@H]2C(=O)N[C@H]3C(=O)N[C@H](C(=O)N[C@H](C(=O)O)c4cc(O)cc(O)c4-c4cc3ccc4O)[C@H](O)c3ccc(c(Cl)c3)Oc3cc2cc(c3O[C@@H]2O[C@H](CO)[C@@H](O)[C@H](O)[C@H]2O[C@H]2C[C@](C)(N)[C@H](O)[C@H](C)O2)Oc2ccc(cc2Cl)[C@H]1O [Vancomycin] |  |  |  |  |  |  | 1.03 | 1.04 | 1.07 | 1.11 | 1.12 | 
6 | CC[C@H]1OC(=O)[C@H](C)[C@@H](O[C@H]2C[C@@](C)(OC)[C@@H](O)[C@H](C)O2)[C@H](C)[C@@H](O[C@@H]2O[C@H](C)C[C@H](N(C)C)[C@H]2O)[C@](C)(O)C[C@@H](C)C(=O)[C@H](C)[C@@H](O)[C@]1(C)O [Erythromycin] |  |  |  | 1.45 | 1.58 | 1.72 | 1.73 | 1.71 | 1.56 |  |  | 
7 | CC[C@H](C)[C@H](N)C1=N[C@H](C(=O)N[C@@H](CC(C)C)C(=O)N[C@H](CCC(=O)O)C(=O)N[C@H](C(=O)N[C@H]2CCCCNC(=O)[C@H](CC(N)=O)NC(=O)[C@@H](CC(=O)O)NC(=O)[C@H](Cc3cnc[nH]3)NC(=O)[C@@H](Cc3ccccc3)NC(=O)[C@H]([C@@H](C)CC)NC(=O)[C@@H](CCCN)NC2=O)[C@@H](C)CC)CS1 [Bacitracin] ({Ileψ(thiazoline)Cys}-L[dE]IK[dOrn]I[dF]H[dD]N; lactam 4-C) | 1.32 | 1.15 | 1.12 | 1.11 | 1.14 | 1.13 | 1.09 | 1.09 | 1.09 | 1.12 | 1.13 | 
8 | CC1=C(C(=O)O)N2C(=O)[C@@H](NC(=O)[C@H](N)c3ccccc3)[C@H]2SC1 [Cephalexin] | 1.73 | 1.78 | 1.76 | 1.62 | 1.68 | 1.81 |  |  |  |  |  | 
9 | O=C(N[C@H](CO)[C@H](O)c1ccc([N+](=O)[O-])cc1)C(Cl)Cl [Chloramphenicol] | 1.10 | 1.22 | 1.27 | 1.40 | 1.90 | 1.51 | 1.20 | 1.16 | 1.14 | 1.13 | 1.17 | 
10 | CCC[C@@H]1C[C@@H](C(=O)N[C@@H]([C@H]2O[C@H](SC)[C@H](O)[C@@H](O)[C@H]2O)[C@@H](C)O)N(C)C1 [Lincomycin] | 1.09 | 1.20 | 1.29 | 1.61 | 1.91 | 1.40 | 1.08 | 0.99 | 1.02 | 1.03 | 1.08 | 
